Assay results published in US20250188030A1, “Biphenyl and Phenylpyridine Compounds” (Pfizer Inc., priority 2023, published 2025).
Read-outs that look alike come from different tables or passages of the source.

Tests used:
H3K9AC (HT1080 cells) = assay: H3K9AC Sandwich ELISA Assay in HT1080 cells (KAT2A primary cell-based screening assay); design: species or system Human
How it was run: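 HT1080 fibrosarcoma cells seeded 16 h, then treated 24 h at 37 °C with 10-point 1:3 compound dilutions (top 10 µM final, 0.1% DMSO). Acid lysates neutralized with butyrate/PMSF; H3K9ac measured by total-H3-capture sandwich ELISA with luminescent HRP readout, IC50 by four-parameter fit.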

MM.1S cells = assay: MM1.S 10 Day Proliferation Assay (CellTiter-Glo); assay type: cell-based, Human
Procedure: Human B lymphoblast cell line MM.1S was obtained from American Type Culture Collection (ATCC), Manassas, VA USA, Cat. MM.1S (ATCC® CRL-2974™). Cells were cultured in RPMI (Thermo Fisher Scientific/Gibco Life Technologies Cat. #111875-093) plus 10% (v/v) FBS (Thermo Fisher Scientific/Gibco Life Technologies Cat. #26140-079) and 1% Penicillin-Streptomycin (Thermo Fisher Scientific/Gibco Life Technologies Cat. #15070063) at 37° C. in 5% CO2.
MM1.S cells were trypsinized cell viability count performed, and cells suspended in complete media at 5,556 cells/ml. Cells were then seeded (90 μl/well) into a 96-well round black/clear bottom, ULA (Ultra-Low Attachment surface plate (Corning cat #4520) at a density of 500 cells/well. Cells were then incubated for 16 hours at 37° C. and 5% CO2. Compound dilution plates were prepared in 96-well, clear U-bottom, polypropylene plates (Corning 3365) in 100% DMSO at 10 mM stock concentration in duplicate wells, using a 10-point serial dilution (1:3 dilutions). Compounds were diluted to 1:100 in growth medium. Then 10 μl of diluted compounds were added to each well of the cell plates using a Beckman FX liquid handling system such that the highest compound concentration tested was 10 μM final, with a 0.1% final DMSO concentration in the total volume of 100 μl. Plates were incubated for 10 total days at 37° C. and 5% CO2. Fresh media containing compound was refreshed at 5 days treatment.
Finally, the treatment plates were removed from the incubator and 100 μl of CellTiter-Glo Luminescent reagent was added to each well, and plates were equilibrated in the dark for 30 minutes. Plates were read on the PHERAstar plate reader using the 96-well with Luminescent reading mode. IC50 values were calculated using a four-parameter fit with GraphPad Prism version 9.5.1 or in house modified IDBS ActivityBase data analyzing package.

KAT2A = KAT2A (Homo sapiens (Human), UniProt Q92830); assay: KAT2A acetyltransferase biochemical assay (RapidFire mass spectrometry, AcCoA to CoA)
[1] = Homo sapiens, HT-1080, H3K9AC sandwich ELISA
[2] = read-out: KAT2A Ki at 1 μM AcCoA, 5 μM H3 1-21 peptide, 0.5 nM KAT2A, 90-minute reaction

Sequence of KAT2A (Q92830 whole entry): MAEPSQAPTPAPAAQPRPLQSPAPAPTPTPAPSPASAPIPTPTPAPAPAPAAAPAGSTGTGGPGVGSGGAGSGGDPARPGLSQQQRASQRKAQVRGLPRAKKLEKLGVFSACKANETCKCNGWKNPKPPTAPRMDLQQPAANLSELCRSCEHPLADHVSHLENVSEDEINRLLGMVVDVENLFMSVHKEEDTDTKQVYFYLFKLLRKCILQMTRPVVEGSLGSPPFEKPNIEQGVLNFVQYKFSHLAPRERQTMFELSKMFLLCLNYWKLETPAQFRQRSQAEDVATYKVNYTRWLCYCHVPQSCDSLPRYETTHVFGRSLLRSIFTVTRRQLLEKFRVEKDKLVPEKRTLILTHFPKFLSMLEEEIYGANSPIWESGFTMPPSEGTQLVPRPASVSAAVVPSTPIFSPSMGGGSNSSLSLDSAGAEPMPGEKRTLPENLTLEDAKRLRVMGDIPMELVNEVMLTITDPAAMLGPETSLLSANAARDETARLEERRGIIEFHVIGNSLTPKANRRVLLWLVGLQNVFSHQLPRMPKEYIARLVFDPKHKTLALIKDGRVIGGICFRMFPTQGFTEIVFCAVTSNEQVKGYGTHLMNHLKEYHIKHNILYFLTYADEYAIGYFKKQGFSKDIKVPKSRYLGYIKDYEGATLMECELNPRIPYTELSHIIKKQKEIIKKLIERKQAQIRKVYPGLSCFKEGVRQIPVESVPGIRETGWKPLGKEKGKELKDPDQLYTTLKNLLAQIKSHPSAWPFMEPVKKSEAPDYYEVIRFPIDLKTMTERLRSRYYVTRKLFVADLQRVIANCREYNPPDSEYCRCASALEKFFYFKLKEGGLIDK

Row | IC50 (H3K9AC (HT1080 cells); [1]) [nM] | IC50 (MM.1S cells; Homo sapiens, MM1.S, 240 h) [nM] | Ki (KAT2A; [2]) [nM] | IC50 (H3K9AC (HT1080 cells); H3K9AC sandwich ELISA) [nM] | IC50 (MM.1S cells) [nM] | Ki (KAT2A; KAT2A Ki at 1 μM AcCoA, 5 μM H3 1-21 peptide, 0.5 nM KAT2A, 90-minute reaction) [nM] | SMILES
1 | 112 | 385 | 42.8 | – | – | – | CC(C)c1ccccc1-c1c(CC(=O)O)cccc1O[C@@H]1CC[C@@H](NC(=O)[C@@H]2CC(C)(C)CN2C)C1 (atropisomer, axis not shown) [Example H4, [(1ψ)-2′-(propan-2-yl)-6-({(1R,3R)-3-[(1,4,4-trimethyl-L-prolyl)amino]cyclopentyl}oxy)[1,1′-biphenyl]-2-yl]acetic acid]
2 | – | 249 | 24.2 | 23.2 | – | – | CN1CC(C)(C)C[C@H]1C(=O)N[C@@H]1CC[C@@H](Oc2cccc(CC(=O)NS(C)(=O)=O)c2-c2ccccc2C2CCC2)C1 (atropisomer, axis not shown) [Example I4, N-[(1R,3R)-3-{[(1ψ)-2′-cyclobutyl-6-{2-[(methanesulfonyl)amino]-2-oxoethyl}[1,1′-biphenyl]-2-yl]oxy}cyclopentyl]-1,4,4-trimethyl-L-prolinamide]
3 | 59 | 88.7 | 13.6 | – | – | – | CN1CC(C)(C)C[C@H]1C(=O)N[C@@H]1CC[C@@H](Oc2cccc(CC(=O)NS(N)(=O)=O)c2-c2ccccc2C2CCC2)C1 (atropisomer, axis not shown) [Example I5, N-[(1R,3R)-3-({(1ψ)-2′-cyclobutyl-6-[2-oxo-2-(sulfamoylamino)ethyl][1,1′-biphenyl]-2-yl}oxy)cyclopentyl]-1,4,4-trimethyl-L-prolinamide]
4 | 55.2 | – | 2.55 | – | – | – | CN1CC(C)(C)CC1C(=O)N[C@H]1C[C@H](COc2ccc(CC(=O)NS(C)(=O)=O)cc2-c2cccc(F)c2C2CCC2)C1 (stereo partly drawn) [Example G1, N-[(1r,3S)-3-{[(2′-cyclobutyl-3′-fluoro-5-{2-[(methanesulfonyl)amino]-2-oxoethyl}[1,1′-biphenyl]-2-yl)oxy]methyl}cyclobutyl]-1,4,4-trimethyl-L-prolinamide]
5 | 2.71 | – | 0.74 | – | – | – | CN1CC(C)(C)C[C@H]1C(=O)N[C@@H]1CC[C@@H](Oc2ccc(-c3nn(C)cc3CC(=O)O)cc2-c2cccc(F)c2C2CCC2)C1 [Example J8, {3-[2′-cyclobutyl-3′-fluoro-6-({(1R,3R)-3-[(1,4,4-trimethyl-L-prolyl)amino]cyclopentyl}oxy)[1,1′-biphenyl]-3-yl]-1-methyl-1H-pyrazol-4-yl}acetic acid]
6 | 5.19 | – | – | – | – | 0.15 | CN1CC(C)(C)C[C@H]1C(=O)N[C@H]1C[C@H](Oc2ccc(C(C)(C)C(=O)O)cc2-c2cccc(F)c2C2CCC2)C[C@H]1O [Example K1, 2-[2′-cyclobutyl-3′-fluoro-6-({(1S,3R,4S)-3-hydroxy-4-[(1,4,4-trimethyl-L-prolyl)amino]cyclopentyl}oxy)[1,1′-biphenyl]-3-yl]-2-methylpropanoic acid]

Continued, compound first:

Row | SMILES | IC50 (H3K9AC (HT1080 cells); [1]) [nM] | IC50 (MM.1S cells; Homo sapiens, MM1.S, 240 h) [nM] | Ki (KAT2A; [2]) [nM] | IC50 (H3K9AC (HT1080 cells); H3K9AC sandwich ELISA) [nM] | IC50 (MM.1S cells) [nM] | Ki (KAT2A; KAT2A Ki at 1 μM AcCoA, 5 μM H3 1-21 peptide, 0.5 nM KAT2A, 90-minute reaction) [nM]
7 | CC(C)(C(=O)O)c1ccc(O[C@@H]2CC[C@@H](NC(=O)[C@@]3(F)CNC4(CCCC4)C3)C2)c(-c2cccc(F)c2C2CCC2)c1 (single isomer, unassigned) [Example A5] | – | 7560 | 1800 | – | – | –
8 | CC(C)c1ccccc1-c1cc(C(=O)O)ccc1O[C@@H]1CC[C@@H](NC(=O)[C@@]2(F)CNC3(CCCC3)C2)C1 (single isomer, unassigned) [Example A41] | – | – | – | 3 | 9.2 | –
9 | CCc1c(F)cccc1-c1cc(C(C)(C)C(=O)NS(=O)(=O)C2(C)CC2)ccc1O[C@@H]1CC[C@@H](NC(=O)[C@@]2(F)CNC3(CCC3)C2)C1 [Example C23, (7S)-N-[(1R,3R)-3-({2′-ethyl-3′-fluoro-5-[2-methyl-1-(1-methylcyclopropane-1-sulfonamido)-1-oxopropan-2-yl][1,1′-biphenyl]-2-yl}oxy)cyclopentyl]-7-fluoro-5-azaspiro[3.4]octane-7-carboxamide] | 91.8 | – | 6.57 | – | – | –
10 | CCc1ccccc1-c1cc(CC(=O)NS(=O)(=O)C(C)C)ccc1O[C@@H]1CC[C@@H](NC(=O)[C@@]2(F)CNC3(CCC3)C2)C1 [Example C52, (7S)-N-[(1R,3R)-3-({2′-ethyl-5-[2-oxo-2-(propane-2-sulfonamido)ethyl][1,1′-biphenyl]-2-yl}oxy)cyclopentyl]-7-fluoro-5-azaspiro[3.4]octane-7-carboxamide] | 8.5 | – | 0.48 | – | – | –
11 | CCS(=O)(=O)NC(=O)Cc1ccc(O[C@@H]2CC[C@@H](NC(=O)[C@@]3(F)CNC4(CCC4)C3)C2)c(-c2ccccc2C(C)C)c1 [Example C53, (7S)-N-[(1R,3R)-3-({5-[2-(ethanesulfonamido)-2-oxoethyl]-2′-(propan-2-yl)[1,1′-biphenyl]-2-yl}oxy)cyclopentyl]-7-fluoro-5-azaspiro[3.4]octane-7-carboxamide] | 7 | – | 0.1 | – | – | –
12 | CN1CC(C)(C)C[C@H]1C(=O)N[C@@H]1CC[C@@H](Oc2ccc(C(=O)O)cc2-c2ccccc2C2CCC2)C1 [Example D4, 2′-cyclobutyl-6-({(1R,3R)-3-[(1,4,4-trimethyl-L-prolyl)amino]cyclopentyl}oxy)[1,1′-biphenyl]-3-carboxylic acid] | 88 | – | 25.1 | – | – | –
13 | CN1CC(C)(C)C[C@H]1C(=O)N[C@@H]1CC[C@@H](Oc2ccc(C(=O)O)cc2-c2cccc(F)c2C2CCC2)C1 [Example D6, 2′-cyclobutyl-3′-fluoro-6-({(1R,3R)-3-[(1,4,4-trimethyl-L-prolyl)amino]cyclopentyl}oxy)[1,1′-biphenyl]-3-carboxylic acid] | 19 | – | 1.08 | – | – | –
14 | CC(C)c1c(F)cccc1-c1cc(C(=O)O)ccc1O[C@@H]1CC[C@@H](NC(=O)[C@@H]2CC(C)(C)CN2C)C1 [Example D7, 3′-fluoro-2′-(propan-2-yl)-6-({(1R,3R)-3-[(1,4,4-trimethyl-L-prolyl)amino]cyclopentyl}oxy)[1,1′-biphenyl]-3-carboxylic acid] | 45.1 | – | 3.57 | – | – | –
15 | CC(C)c1c(F)cccc1-c1cc(CC(=O)O)ccc1O[C@@H]1CC[C@@H](NC(=O)[C@@H]2CC(C)(C)CN2C)C1 [Example D12, [3′-fluoro-2′-(propan-2-yl)-6-({(1R,3R)-3-[(1,4,4-trimethyl-L-prolyl)amino]cyclopentyl}oxy)[1,1′-biphenyl]-3-yl]acetic acid] | 66.6 | – | 12.4 | – | – | –
16 | [2H]C([2H])([2H])N1CC(C)(C)C[C@H]1C(=O)N[C@@H]1CC[C@@H](Oc2ccc(C(C)(C)C(=O)O)cc2-c2cccc(F)c2C2CCC2)C1 [Example D15, 2-(2′-cyclobutyl-6-{[(1R,3R)-3-{[4,4-dimethyl-1-(^2H3)methyl-L-prolyl]amino}cyclopentyl]oxy}-3′-fluoro[1,1′-biphenyl]-3-yl)-2-methylpropanoic acid] | 83.5 | – | 8.87 | – | – | –
17 | CN1CC(C)(C)C[C@H]1C(=O)N[C@@H]1CC[C@@H](Oc2ccc(C(C)(C)c3noc(=O)[nH]3)cc2-c2cccc(F)c2C2CCC2)C1 [Example D17, N-[(1R,3R)-3-({2′-cyclobutyl-3′-fluoro-5-[2-(5-oxo-4,5-dihydro-1,2,4-oxadiazol-3-yl)propan-2-yl][1,1′-biphenyl]-2-yl}oxy)cyclopentyl]-1,4,4-trimethyl-L-prolinamide] | 14.4 | – | 2.64 | – | – | –
18 | CN(C)S(=O)(=O)NC(=O)c1cccc(O[C@@H]2CC[C@@H](NC(=O)[C@@]3(F)CNC4(CCC4)C3)C2)c1-c1cccc(F)c1C1CCC1 [Example I20, (7S)-N-[(1R,3R)-3-({(1ψ)-2′-cyclobutyl-6-[(dimethylsulfamoyl)carbamoyl]-3′-fluoro[1,1′-biphenyl]-2-yl}oxy)cyclopentyl]-7-fluoro-5-azaspiro[3.4]octane-7-carboxamide] | – | – | 26.3 | 51.9 | – | –
